Measured values published in the supplement of paper PMC6045584.
± gives the standard deviation of the averaged measurements.

Key:
CANERTINIB [1] = compound: T1, C=CC(=O)Nc1cc2c(Nc3ccc(F)c(Cl)c3)ncnc2cc1OCCCN1CCOCC1 [CANERTINIB]; experiment: surviving fraction relative to DMSO-only wells; higher = less growth inhibition; settings: exposure time: 5 days
How it was run: (§1)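 Viability was determined by CellTiter-Glo luminescence, expressed as surviving fraction normalised to the median of DMSO-only wells. The cells were log-phase tumour cell lines seeded at 250–500 per well in 384-well plates and, after 24 hours, exposed continuously for five days to inhibitors at 0.5, 1, 5, 10, 50, 100, 500 and 1000 nM. Three screens per line were run, keeping only lines with replicate Pearson r >0.7 and median Z' >0.3.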

SNX-5422 [2] = compound: T2, CC1(C)CC(=O)c2c(C(F)(F)F)nn(-c3ccc(C(N)=O)c(N[C@H]4CC[C@H](OC(=O)CN)CC4)c3)c2C1 [SNX-5422]; experiment: as above; settings: exposure time: 5 days
How it was run: as §1

SAPACITABINE [3] = compound: T3, CCCCCCCCCCCCCCCC(=O)Nc1ccn([C@@H]2O[C@H](CO)[C@@H](O)[C@@H]2C#N)c(=O)n1 [SAPACITABINE]; experiment: as above; settings: exposure time: 5 days
How it was run: as §1

BI-2536 [4] = compound: T4, CC[C@@H]1C(=O)N(C)c2cnc(Nc3ccc(C(=O)NC4CCN(C)CC4)cc3OC)nc2N1C1CCCC1 [BI-2536]; experiment: as above; settings: exposure time: 5 days
How it was run: as §1

AFATINIB [5] = compound: T5, CN(C)C/C=C/C(=O)Nc1cc2c(Nc3ccc(F)c(Cl)c3)ncnc2cc1O[C@H]1CCOC1 [AFATINIB]; experiment: as above; settings: exposure time: 5 days
How it was run: as §1

MDV3100 [6] = compound: T6, CNC(=O)c1ccc(N2C(=S)N(c3ccc(C#N)c(C(F)(F)F)c3)C(=O)C2(C)C)cc1F [MDV3100]; experiment: as above; settings: exposure time: 5 days
How it was run: as §1

[7] = compound: Cn1cc(C2=Nc3cc(NC(=O)C(N)C4CCCCC4)cc4c3C2=CNNC4=O)cn1; experiment: as above; settings: exposure time: 5 days
How it was run: as §1

TIOGUANINE [8] = compound: T7, Nc1nc2[nH]cnc2c(=S)[nH]1 [TIOGUANINE]; experiment: as above; settings: exposure time: 5 days
How it was run: as §1

CANERTINIB [9] = compound: T1, CANERTINIB; experiment: area under dose-response curve of surviving fraction (unscaled, Aref=0) (surviving fraction x log10(nM)); higher = more resistant; settings: exposure time: 5 days; dose range 0.5-1000 nM
How it was run: (§2)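 Each tumour cell line was screened three times in 384-well plates, receiving eight inhibitor concentrations from 0.5 to 1000 nM for five days. CellTiter-Glo luminescence gave viability, normalised to DMSO-only wells. Using the drc R package, surviving fractions were fitted with 3-parameter logistic dose-response curves, and the unscaled activity area over log10 dose (Aref = 0) was taken as the area under the curve.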

SNX-5422 [10] = compound: T2, SNX-5422; experiment: as above; settings: exposure time: 5 days; dose range 0.5-1000 nM
How it was run: as §2

SAPACITABINE [11] = compound: T3, SAPACITABINE; experiment: as above; settings: exposure time: 5 days; dose range 0.5-1000 nM
How it was run: as §2

BI-2536 [12] = compound: T4, BI-2536; experiment: as above; settings: exposure time: 5 days; dose range 0.5-1000 nM
How it was run: as §2

AFATINIB [13] = compound: T5, AFATINIB; experiment: as above; settings: exposure time: 5 days; dose range 0.5-1000 nM
How it was run: as §2

MDV3100 [14] = compound: T6, MDV3100; experiment: as above; settings: exposure time: 5 days; dose range 0.5-1000 nM
How it was run: as §2

[15] = compound: Cn1cc(C2=Nc3cc(NC(=O)C(N)C4CCCCC4)cc4c3C2=CNNC4=O)cn1; experiment: as above; settings: exposure time: 5 days; dose range 0.5-1000 nM
How it was run: as §2

TIOGUANINE [16] = compound: T7, TIOGUANINE; experiment: as above; settings: exposure time: 5 days; dose range 0.5-1000 nM
How it was run: as §2

MCF7 BREAST
surviving fraction (CANERTINIB [1]; 0.5 nM): 0.838 ± 0.027 | surviving fraction (CANERTINIB [1]; 1 nM): 0.831 ± 0.023 | surviving fraction (CANERTINIB [1]; 5 nM): 0.818 ± 0.02 | surviving fraction (CANERTINIB [1]; 10 nM): 0.79 ± 0.018 | surviving fraction (CANERTINIB [1]; 50 nM): 0.888 ± 0.02 | surviving fraction (CANERTINIB [1]; 100 nM): 0.859 ± 0.039 | surviving fraction (CANERTINIB [1]; 500 nM): 0.854 ± 0.082 | surviving fraction (CANERTINIB [1]; 1000 nM): 0.808 ± 0.026 | surviving fraction (SNX-5422 [2]; 0.5 nM): 0.9 ± 0.094 | surviving fraction (SNX-5422 [2]; 1 nM): 0.925 ± 0.068 | surviving fraction (SNX-5422 [2]; 5 nM): 0.94 ± 0.066 | surviving fraction (SNX-5422 [2]; 10 nM): 0.906 ± 0.07 | surviving fraction (SNX-5422 [2]; 50 nM): 0.627 ± 0.02 | surviving fraction (SNX-5422 [2]; 100 nM): 0.465 ± 0.011 | surviving fraction (SNX-5422 [2]; 500 nM): 0.303 ± 0.015 | surviving fraction (SNX-5422 [2]; 1000 nM): 0.321 ± 0.01 | surviving fraction (SAPACITABINE [3]; 0.5 nM): 0.826 ± 0.037 | surviving fraction (SAPACITABINE [3]; 1 nM): 0.803 ± 0.02 | surviving fraction (SAPACITABINE [3]; 5 nM): 0.807 ± 0.015 | surviving fraction (SAPACITABINE [3]; 10 nM): 0.716 ± 0.022 | surviving fraction (SAPACITABINE [3]; 50 nM): 0.923 ± 0.028 | surviving fraction (SAPACITABINE [3]; 100 nM): 0.833 ± 0.046 | surviving fraction (SAPACITABINE [3]; 500 nM): 0.705 ± 0.033 | surviving fraction (SAPACITABINE [3]; 1000 nM): 0.538 ± 0.0081 | surviving fraction (BI-2536 [4]; 0.5 nM): 0.911 ± 0.071 | surviving fraction (BI-2536 [4]; 1 nM): 0.913 ± 0.07 | surviving fraction (BI-2536 [4]; 5 nM): 0.797 ± 0.074 | surviving fraction (BI-2536 [4]; 10 nM): 0.445 ± 0.018 | surviving fraction (BI-2536 [4]; 50 nM): 0.408 ± 0.021 | surviving fraction (BI-2536 [4]; 100 nM): 0.38 ± 0.022 | surviving fraction (BI-2536 [4]; 500 nM): 0.394 ± 0.01 | surviving fraction (BI-2536 [4]; 1000 nM): 0.319 ± 0.0042 | surviving fraction (AFATINIB [5]; 0.5 nM): 0.944 ± 0.025 | surviving fraction (AFATINIB [5]; 1 nM): 0.905 ± 0.028 | surviving fraction (AFATINIB [5]; 5 nM): 0.955 ± 0.017 | surviving fraction (AFATINIB [5]; 10 nM): 0.942 ± 0.032 | surviving fraction (AFATINIB [5]; 50 nM): 1.01 ± 0.035 | surviving fraction (AFATINIB [5]; 100 nM): 1.08 ± 0.053 | surviving fraction (AFATINIB [5]; 500 nM): 0.986 ± 0.073 | surviving fraction (AFATINIB [5]; 1000 nM): 0.953 ± 0.023 | surviving fraction (MDV3100 [6]; 0.5 nM): 0.84 ± 0.029 | surviving fraction (MDV3100 [6]; 1 nM): 0.822 ± 0.031 | surviving fraction (MDV3100 [6]; 5 nM): 0.866 ± 0.058 | surviving fraction (MDV3100 [6]; 10 nM): 0.767 ± 0.038 | surviving fraction (MDV3100 [6]; 50 nM): 0.932 ± 0.03 | surviving fraction (MDV3100 [6]; 100 nM): 0.992 ± 0.025 | surviving fraction (MDV3100 [6]; 500 nM): 0.97 ± 0.014 | surviving fraction (MDV3100 [6]; 1000 nM): 0.897 ± 0.028 | surviving fraction ([7]; 0.5 nM): 0.913 ± 0.043 | surviving fraction ([7]; 1 nM): 0.918 ± 0.052 | surviving fraction ([7]; 5 nM): 0.92 ± 0.023 | surviving fraction ([7]; 10 nM): 0.865 ± 0.022 | surviving fraction ([7]; 50 nM): 0.989 ± 0.022 | surviving fraction ([7]; 100 nM): 0.885 ± 0.029 | surviving fraction ([7]; 500 nM): 0.745 ± 0.02 | surviving fraction ([7]; 1000 nM): 0.575 ± 0.011 | surviving fraction (TIOGUANINE [8]; 0.5 nM): 0.824 ± 0.015 | surviving fraction (TIOGUANINE [8]; 1 nM): 0.804 ± 0.075 | surviving fraction (TIOGUANINE [8]; 5 nM): 0.846 ± 0.032 | surviving fraction (TIOGUANINE [8]; 10 nM): 0.835 ± 0.025 | surviving fraction (TIOGUANINE [8]; 50 nM): 0.903 ± 0.045 | surviving fraction (TIOGUANINE [8]; 100 nM): 0.875 ± 0.069 | surviving fraction (TIOGUANINE [8]; 500 nM): 0.872 ± 0.054 | surviving fraction (TIOGUANINE [8]; 1000 nM): 0.889 ± 0.055 | area under dose-response curve (CANERTINIB [9]): 2.76 | area under dose-response curve (SNX-5422 [10]): 2.3 | area under dose-response curve (SAPACITABINE [11]): 2.58 | area under dose-response curve (BI-2536 [12]): 1.8 | area under dose-response curve (AFATINIB [13]): 3.17 | area under dose-response curve (MDV3100 [14]): 2.89 | area under dose-response curve [15]: 2.85 | area under dose-response curve (TIOGUANINE [16]): 2.83
